Experimental findings from patent US9284330B2 (priority 2011, dated 2016) are described below.

Series [1] deals with L-type Ca2+ channel. The series is described as follows: Blocking of L-type Ca2+ channel by high content screening analyzer, KCl-induced calcium ion influx in SH-SY5Y cells (Fluo-4-AM).
Series [2] has as its target acetylcholinesterase (Electrophorus electricus (Electric eel) (Gymnotus electricus), UniProt O42275). Kind of series: biochemical.
Series [3] deals with primary cortical neuron cells. As to conditions: 24 h incubation.
Series [4] concerns L-type Ca2+ channel. The series is described as follows: Blocking of L-type Ca2+ channel by patch clamp, calcium current in rat dorsal root ganglion cells. The class given is cell-based. As to conditions: whole cell patch clamp. For orientation: In patch-clamp work, channel activity is measured electrically.

Like-named read-outs stand apart in the source and are kept apart here.

In general, IC50 refers to the midpoint of a concentration-inhibition curve. Lower therefore signals greater potency.

Chain of acetylcholinesterase (O42275 whole entry, looked up): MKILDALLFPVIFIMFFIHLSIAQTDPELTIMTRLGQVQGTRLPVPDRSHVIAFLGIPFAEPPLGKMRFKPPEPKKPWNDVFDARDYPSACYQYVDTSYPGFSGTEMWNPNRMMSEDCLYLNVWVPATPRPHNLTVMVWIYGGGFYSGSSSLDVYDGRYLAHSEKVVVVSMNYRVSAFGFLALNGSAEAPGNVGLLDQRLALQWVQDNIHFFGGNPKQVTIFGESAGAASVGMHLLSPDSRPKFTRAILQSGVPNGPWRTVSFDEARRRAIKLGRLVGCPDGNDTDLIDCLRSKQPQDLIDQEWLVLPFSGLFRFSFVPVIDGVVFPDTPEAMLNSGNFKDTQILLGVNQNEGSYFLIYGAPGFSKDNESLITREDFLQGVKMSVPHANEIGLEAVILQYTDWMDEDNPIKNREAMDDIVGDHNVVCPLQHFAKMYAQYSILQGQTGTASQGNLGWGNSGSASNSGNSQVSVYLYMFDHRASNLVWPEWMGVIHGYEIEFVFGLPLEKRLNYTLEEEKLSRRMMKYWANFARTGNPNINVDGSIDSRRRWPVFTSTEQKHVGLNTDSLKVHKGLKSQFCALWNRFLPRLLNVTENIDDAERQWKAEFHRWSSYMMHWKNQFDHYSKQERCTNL

`CCOC(=O)C1=C(C)Nc2nc3c(c(N)c2C1c1ccc(C(F)(F)F)cc1)CC(C)CC3` (stereo not drawn) [Compound S2, 5-amino-2,7-dimethyl-4-(4-trifluoromethylphenyl)-1,4,6,7,8,9-hexahydrobenzo[b][1,8]naphthyridine-3-carboxylic acid ethyl ester]: the “Inhibition rate of KCl-induced calcium ion influx” value is 38.79% in series [1] (10 μM compound) and 94.01% in series [1] (50 μM compound). This compound also returned a 50% inhibitory concentration (IC50) in series [2] of 0.558 µM.

Turning to `CCOC(=O)C1=C(C)Nc2nc3c(c(N)c2C1c1cccc(C(F)(F)F)c1)CC(C)(C)CC3` (stereo not drawn) [Compound S4, 5-amino-4-(3-trifluoromethylphenyl)-2,7,7-trimethyl-1,4,6,7,8,9-hexahydrobenzo[b][1,8]naphthyridine-3-carboxylic acid ethyl ester], the figures for the “Inhibition rate of KCl-induced calcium ion influx” value in series [1] (10 μM compound) and in series [1] (50 μM compound) were 64.82% and 85.17%, respectively. In series [2], this compound yielded a half-inhibitory concentration (IC50) of 1.05 µM.

Take `C=CCOC(=O)C1=C(C)Nc2nc3c(c(N)c2C1c1cccc([N+](=O)[O-])c1)CC(C)(C)CC3` (stereo not drawn) [Compound S5, 5-amino-4-(3-nitrophenyl)-2,7,7-trimallyl1,4,6,7,8,9-hexahydrobenzo[b][1,8]naphthyr idine-3-carboxylic acid allyl ester]: the “Inhibition rate of KCl-induced calcium ion influx” value in series [1] (10 μM compound) was 14.40%; in series [1] (50 μM compound), 62.43%. In series [2], this compound gave an IC50 of 0.77 µM.

Consider `COC(=O)C1=C(C)Nc2nc3c(c(N)c2C1c1ccccc1)CC(C)(C)CC3` (stereo not drawn) [Compound S7, 5-amino-4-phenyl-2,7,7-trimethyl-1,4,6,7,8,9-hexahydrobenzo[b][1,8]naphthyridine-3-carboxylic acid methyl ester], for which the “Inhibition rate of KCl-induced calcium ion influx” value in series [1] (10 μM compound) is listed as 1.01%; in series [1] (50 μM compound), 72.98%. Half-maximal inhibition in series [2] (IC50) required 1.38 µM.

In the case of `CC1=C(C(=O)OC2CCC2)C(c2ccccc2F)c2c(nc3c(c2N)CC(C)(C)CC3)N1` (stereo not drawn) [Compound S9, 5-amino-4-(2-fluorophenyl)-2,7,7-trimethyl-1,4,6,7,8,9-hexahydrobenzo[b][1,8]napht hyridine-3-carboxylic acid cyclobutyl ester], the figures for the “Inhibition rate of KCl-induced calcium ion influx” value in series [1] (10 μM compound) and in series [1] (50 μM compound) were 5.22% and 85.01%, respectively. The compound also returned an IC50 in series [2] of 0.919 µM.

With `COCCOC(=O)C1=C(C)Nc2nc3c(c(N)c2C1c1ccccc1Cl)CC(C)(C)CC3` (stereo not drawn) [Compound S10, 5-amino-4-(2-chlorphenyl)-2,7,7-trimethyl-1,4,6,7,8,9-hexahydrobenzo[b][1,8]naphth yridine-3-carboxylic acid methoxylethyl ester], the “Inhibition rate of KCl-induced calcium ion influx” value worked out at 49.97% in series [1] (10 μM compound) and 83.29% in series [1] (50 μM compound). In addition, the “Relative neuron activity (average)” value in series [3] (0.01 μM) amounted to 120.7%; in series [3] (0.1 μM), 96.3%; in series [3] (1 μM), 70.3%. The compound further came in with a 50% inhibitory concentration (IC50) in series [2] of 0.971 µM.

For `CC1=C(C(=O)OCC2CC2)C(c2ccccc2Cl)c2c(nc3c(c2N)CC(C)(C)CC3)N1` (stereo not drawn) [Compound S11, 5-amino-4-(2-chlorphenyl)-2,7,7-trimethyl-1,4,6,7,8,9-hexahydrobenzo[b][1,8]naphth yridine-3-carboxylic acid cyclopropylmethyl ester], the “Inhibition rate of KCl-induced calcium ion influx” value was determined as 54.69% in series [1] (10 μM compound) and 75.06% in series [1] (50 μM compound).

In the case of `COC(=O)C1=C(C)Nc2nc3c(c(N)c2C1c1ccccc1)CN(C)CC3` (stereo not drawn) [Compound S12, 5-amino-2,7-dimethyl-4-phenyl-1,4,6,7,8,9-hexahydropyrido[2,3-b][1,6]naphthyridine-3-carboxylic acid methyl ester], the “Inhibition rate of KCl-induced calcium ion influx” value in series [1] (10 μM compound) came out at 34.59%; in series [1] (50 μM compound), 52.61%.

Turning to `COC(=O)C1=C(C)Nc2nc3c(c(N)c2C1c1cccc([N+](=O)[O-])c1)CCC(C)=C3` (stereo not drawn) [Compound S18, 5-amino-2,8-dimethyl-4-(3-nitrophenyl)-1,4,6,7-tetrahydrobenzo[b][1,8]naphthyridine-3-carboxylic acid methyl ester], in series [2], inhibition was half-maximal at 0.504 µM (IC50).

In series [2], `CCOC(=O)C1=C(C)Nc2nc3c(c(N)c2C1c1cccc([N+](=O)[O-])c1)CC(F)(F)CC3` (stereo not drawn) [Compound S19, 5-amino-7,7-difluoro-2-methyl-4-(3-nitrophenyl)-1,4,6,7,8,9-hexahydrobenzo[b][1,8]naphthyridine-3-carboxylic acid ethyl ester] showed an IC50 of 0.333 µM. For the same compound, the “Inhibition rate of L-type Ca2+ channel current” value in series [4] (100 nmol/L compound) is on record as 4.12%; in series [4] (1000 nmol/L compound) it was 26.29%.

As for `CCOC(=O)C1=C(C)Nc2nc3c(c(N)c2C1c1cccc([N+](=O)[O-])c1)CC(Cl)(Cl)CC3` (stereo not drawn) [Compound S20, 5-amino-7,7-dichloro-2-methyl-4-(3-nitrophenyl)-1,4,6,7,8,9-hexahydrobenzo[b][1,8]naphthyridine-3-carboxylic acid ethyl ester], the “Inhibition rate of KCl-induced calcium ion influx” value in series [1] (10 μM compound) stood at 46.88%; in series [1] (50 μM compound) it was 99.27%. The “Relative neuron activity (average)” value came to 103.9% in series [3] (0.01 μM), 98.5% in series [3] (0.1 μM) and 47.5% in series [3] (1 μM).

On to `CCC1=C(C(=O)OC)C(c2cccc([N+](=O)[O-])c2)c2c(nc3c(c2N)CC(C)(C)CC3)N1` (stereo not drawn) [Compound S25, 5-amino-7,7-dimethyl-4-(3-nitrophenyl)-2-ethyl-1,4,6,7,8,9-hexahydrobenzo[b][1,8]n aphthyridine-3-carboxylic acid methyl ester], for which the “Inhibition rate of KCl-induced calcium ion influx” value came out at 1.02% in series [1] (10 μM compound) and 63.52% in series [1] (50 μM compound). In addition, in series [2], the midpoint of inhibition, the IC50, lay at 0.842 µM.

On to `CC1=C(C(=O)OC(C)C)C(c2cncnc2)c2c(nc3c(c2N)CC(C)(C)CC3)N1` (stereo not drawn) [Compound S26, 5-amino-2,7,7-trimethyl-4-(pyrimidin-5-yl)-1,4,6,7,8,9-hexahydrobenzo[b][1,8]napht hyridine-3-carboxylic acid isopropyl ester], for which the “Inhibition rate of KCl-induced calcium ion influx” value in series [1] (10 μM compound) worked out at 30.18%; in series [1] (50 μM compound) it was 41.41%.

The compound `CCOC(=O)C1=C(C)Nc2nc3c(c(N)c2C1c1ccccc1OC)CC(C)CC3` (stereo not drawn) [Compound S28, 5-amino-4-(2-methoxylphenyl)-2,7-dimethyl-1,4,6,7,8,9-hexahydrobenzo[b][1,8]naph thyridine-3-carboxylic acid ethyl ester] showed a 50% inhibitory concentration (IC50) in series [2] of 0.136 µM.

Regarding `COC(=O)C1=C(C)Nc2nc3c(c(N)c2C1c1cccc([N+](=O)[O-])c1)CC(C)(C)CC3` (stereo not drawn) [Compound S30, 5-amino-2,7,7-trimethyl-4-(3-nitrophenyl)-1,4,6,7,8,9-hexahydrobenzo[b][1,8]naphth yridine-3-carboxylic acid methyl ester], the “Inhibition rate of KCl-induced calcium ion influx” value was found to be 29.44% in series [1] (10 μM compound) and 80.73% in series [1] (50 μM compound). Besides, the concentration for half-maximal inhibition (IC50) in series [2] came to 5.96 µM.

As to `CCOC(=O)C1=C(C)Nc2nc3c(c(N)c2C1c1cccc([N+](=O)[O-])c1)CC(C)(C)CC3` (stereo not drawn) [Compound S31, 5-amino-2,7,7-trimethyl-4-(3-nitrophenyl)-1,4,6,7,8,9-hexahydrobenzo[b][1,8]naphth yridine-3-carboxylic acid ethyl ester], the “Inhibition rate of KCl-induced calcium ion influx” value in series [1] (10 μM compound) is listed as 19.10%; in series [1] (50 μM compound), 93.34%. For the same compound, in series [2], inhibition was half-maximal at 3.03 µM (IC50).

For the compound `CC1=C(C(=O)OC(C)C)C(c2cccc(Cl)c2)c2c(nc3c(c2N)CC(C)(C)CC3)N1` (stereo not drawn) [Compound S33, 5-amino-2,7,7-trimethyl-4-(3-chlorphenyl)-1,4,6,7,8,9-hexahydrobenzo[b][1,8]naphth yridine-3-carboxylic acid isopropyl ester], in series [2], the IC50 turned out to be 1.84 µM.

Consider `CCOC(=O)C1=C(C)Nc2nc3c(c(N)c2C1c1cccc(F)c1)CC(C)(C)CC3` (stereo not drawn) [Compound S34, 5-amino-2,7,7-trimethyl-4-(3-fluorophenyl)-1,4,6,7,8,9-hexahydrobenzo[b][1,8]napht hyridine-3-carboxylic acid ethyl ester], for which the figures for the “Inhibition rate of KCl-induced calcium ion influx” value in series [1] (10 μM compound) and in series [1] (50 μM compound) were 39.53% and 88.96%, respectively. In addition, 1.78 µM corresponded to half-maximal inhibition in series [2] (IC50).

Compound `C=CCOC(=O)C1=C(C)Nc2nc3c(c(N)c2C1c1cccc(F)c1)CC(C)(C)CC3` (stereo not drawn) [Compound S35, 5-amino-4-(3-fluorophenyl)-2,7,7-trimethyl-1,4,6,7,8,9-hexahydrobenzo[b][1,8]napht hyridine-3-carboxylic acid allyl ester] gave a half-maximal inhibitory concentration (IC50) in series [2] of 1.79 µM.

Take `C#CCOC(=O)C1=C(C)Nc2nc3c(c(N)c2C1c1cccc(F)c1)CC(C)(C)CC3` (stereo not drawn) [Compound S36, 5-amino-2,7,7-trimethyl-4-(3-fluorophenyl)-1,4,6,7,8,9-hexahydrobenzo[b][1,8]napht hyridine-3-carboxylic acid propargyl ester]: the IC50 in series [2] turned out to be 1.93 µM. This IC50 and that of the compound before are within 1.5-fold of each other.

`C#CCOC(=O)C1=C(C)Nc2nc3c(c(N)c2C1c1cccc([N+](=O)[O-])c1)CC(C)(C)CC3` (stereo not drawn) [Compound S37, 5-amino-4-(3-nitrophenyl)-2,7,7-trimethyl-1,4,6,7,8,9-hexahydrobenzo[b][1,8]naphth yridine-3-carboxylic acid propargyl ester] displayed an IC50 in series [2] of 1.86 µM.

Consider `CCOC(=O)C1=C(C)N(C)c2nc3c(c(N)c2C1c1ccccc1Cl)CC(C)(C)CC3` (stereo not drawn) [Compound S38, 5-amino-4-(2-chlorphenyl)-1,2,7,7-tetramethyl-1,4,6,7,8,9-hexahydrobenzo[b][1, 8]na phthyridine-3-carboxylic acid ethyl ester], for which the figures for the “Inhibition rate of KCl-induced calcium ion influx” value in series [1] (10 μM compound) and in series [1] (50 μM compound) were 17.97% and 51.19%, respectively.

Turning to `COC(=O)C1=C(C)NC(C)=C(C(=O)OC)C1c1ccccc1[N+](=O)[O-]` [Nifedipine, reference compound], the “Inhibition rate of L-type Ca2+ channel current” value in series [4] (100 nmol/L compound) came out at 22.48%; in series [4] (1000 nmol/L compound), 36.15%.
